According to PMC5105127, “16-nor Limonoids from Harrisonia perforata as promising selective 11β-HSD1 inhibitors” (Scientific Reports, 2016):
Where two headings read alike, the source gives them in different places.

How the values were obtained:
Assay type in all cases: biochemical
murine 11β-HSD2 = target: T1, murine 11β-HSD2 (Mus musculus, UniProt P51661); experiment: scintillation proximity assay (SPA), murine 11β-HSD2
T1 construct: The full-length cDNAs of human or murine11β-HSD1 and 11β-HSD2 were isolated from the cDNA libraries; made in house; host or cells: HEK-293, stably transfected with a pcDNA3 plasmid; microsomal fraction
T1 sequence (P51661 1-386): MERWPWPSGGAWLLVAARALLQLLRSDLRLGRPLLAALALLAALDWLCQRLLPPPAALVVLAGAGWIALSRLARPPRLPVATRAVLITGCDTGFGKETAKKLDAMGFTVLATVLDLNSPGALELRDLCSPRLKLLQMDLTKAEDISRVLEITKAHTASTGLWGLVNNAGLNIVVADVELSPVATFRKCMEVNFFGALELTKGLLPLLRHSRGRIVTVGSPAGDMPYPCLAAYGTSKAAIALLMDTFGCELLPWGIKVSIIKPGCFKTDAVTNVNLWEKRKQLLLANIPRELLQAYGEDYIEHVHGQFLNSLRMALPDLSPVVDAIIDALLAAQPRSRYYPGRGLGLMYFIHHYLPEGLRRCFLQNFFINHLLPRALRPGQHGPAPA
Procedure: (§1) The inhibitory activity of compounds 1–3 on murine and human 11β-HSD1 was evaluated using the scintillation proximity assay (SPA)[25]. […] We further used the intact cell transfected with human HSD11B1 and HSD11B2 to screen their bioactivities.
(§2) The inhibitory activities of the compounds on human or mouse 11β-HSD1 and 11β-HSD2 were determined using the scintillation proximity assay (SPA). The full-length cDNAs of human or murine11β-HSD1 and 11β-HSD2 were isolated from the cDNA libraries provided by NIH Mammalian Gene Collection. The cDNAs were cloned into pcDNA3 expression vectors. HEK-293 cells were transfected with the pcDNA3-derived expression plasmid and selected by cultivation in the presence of 700 μg/ml of G418. The microsomal fraction overexpressing 11β-HSD1 or 11β-HSD2 was prepared from the HEK-293 cells, which were stably transfected with 11β-HSD1 or 11β-HSD2. The fraction was then used as the enzyme source for SPA. Microsomes containing human or mouse 11β-HSD1 were incubated with NADPH and [^3H] cortisone. The product, [^3H] cortisol, was specifically captured by a monoclonal antibody coupled to protein A-coated SPA beads. The 11β-HSD2 screening was performed by incubating 11β-HSD2 microsomes with [^3H] cortisol and NAD + and monitoring substrate disappearance. […] IC50 (X + SD, n = 2) values were calculated by using Prism Version 4 (GraphPad Software, SanDiego, CA).

murine 11β-HSD1 = target: T2, murine 11β-HSD1 (Mus musculus, UniProt P50172); experiment: scintillation proximity assay (SPA), murine 11β-HSD1
T2 construct: The full-length cDNAs of human or murine11β-HSD1 and 11β-HSD2 were isolated from the cDNA libraries; made in house; host or cells: HEK-293, stably transfected with a pcDNA3 plasmid; microsomal fraction
Procedure: The inhibitory activity of compounds 1–3 on murine and human 11β-HSD1 was evaluated using the scintillation proximity assay (SPA)[25]. […] We further used the intact cell transfected with human HSD11B1 and HSD11B2 to screen their bioactivities. […] The inhibitory activities of the compounds on human or mouse 11β-HSD1 and 11β-HSD2 were determined using the scintillation proximity assay (SPA). The full-length cDNAs of human or murine11β-HSD1 and 11β-HSD2 were isolated from the cDNA libraries provided by NIH Mammalian Gene Collection. The cDNAs were cloned into pcDNA3 expression vectors. HEK-293 cells were transfected with the pcDNA3-derived expression plasmid and selected by cultivation in the presence of 700 μg/ml of G418. The microsomal fraction overexpressing 11β-HSD1 or 11β-HSD2 was prepared from the HEK-293 cells, which were stably transfected with 11β-HSD1 or 11β-HSD2. The fraction was then used as the enzyme source for SPA. Microsomes containing human or mouse 11β-HSD1 were incubated with NADPH and [^3H] cortisone. The product, [^3H] cortisol, was specifically captured by a monoclonal antibody coupled to protein A-coated SPA beads. The 11β-HSD2 screening was performed by incubating 11β-HSD2 microsomes with [^3H] cortisol and NAD + and monitoring substrate disappearance. All tests were done twice with glycyrrhizinic acid as a positive control.

human 11β-HSD1 = target: T3, human 11β-HSD1 (Homo sapiens, UniProt P28845); experiment: scintillation proximity assay (SPA), human 11β-HSD1
T3 construct: The full-length cDNAs of human or murine11β-HSD1 and 11β-HSD2 were isolated from the cDNA libraries; made in house; host or cells: HEK-293, stably transfected with a pcDNA3 plasmid; microsomal fraction
Procedure: as §1, §2

human 11β-HSD2 = experiment: scintillation proximity assay (SPA), human 11β-HSD2; settings: human 11β-HSD2 vs human 11β-HSD1
Procedure: as §1, §2

T2 sequence (P50172 whole entry): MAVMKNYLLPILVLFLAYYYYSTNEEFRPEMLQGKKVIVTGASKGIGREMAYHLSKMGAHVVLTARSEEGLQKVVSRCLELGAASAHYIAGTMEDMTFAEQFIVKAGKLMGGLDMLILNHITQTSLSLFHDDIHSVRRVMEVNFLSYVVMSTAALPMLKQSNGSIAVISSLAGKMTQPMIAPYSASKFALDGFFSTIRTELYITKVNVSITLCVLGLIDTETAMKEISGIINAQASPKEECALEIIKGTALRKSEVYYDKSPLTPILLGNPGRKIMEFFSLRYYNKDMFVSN
T3 sequence (P28845 whole entry): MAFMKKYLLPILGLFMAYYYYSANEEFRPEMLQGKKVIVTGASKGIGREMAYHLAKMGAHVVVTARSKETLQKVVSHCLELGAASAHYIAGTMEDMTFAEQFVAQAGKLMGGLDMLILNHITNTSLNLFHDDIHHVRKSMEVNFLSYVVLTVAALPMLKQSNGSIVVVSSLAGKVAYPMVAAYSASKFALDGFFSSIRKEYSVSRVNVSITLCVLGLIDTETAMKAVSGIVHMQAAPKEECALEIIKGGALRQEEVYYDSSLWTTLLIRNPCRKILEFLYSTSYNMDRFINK

## CC1(C)OC(=O)C=C[C@]2(C)O[C@@]3(CC4=C5C(=O)O[C@@H](c6ccoc6)[C@]5(C)CC[C@H]4O3)C[C@H]12 [Compound 1, Harperspinoid A]
Murine 11β-HSD2; at 1 mM
  inhibition of murine 11β-HSD2 activity: did not inhibit the enzyme at all
Murine 11β-HSD2; murine 11β-HSD2 vs murine 11β-HSD1
  SI (selectivity against murine 11β-HSD2): > 1661
Murine 11β-HSD1; 0.1 μM, read-out: Inhibition rate on murine 11β-HSD1
  inhibition at 0.1 µM: 22.8%
Murine 11β-HSD1; 0.3 μM, read-out: Inhibition rate on murine 11β-HSD1
  inhibition at 0.3 µM: 35.1%
Murine 11β-HSD1; 1 μM, read-out: Inhibition rate on murine 11β-HSD1
  inhibition at 1 µM: 55.8%
Murine 11β-HSD1; 3 μM, read-out: Inhibition rate on murine 11β-HSD1
  inhibition at 3 µM: 79.4%
Murine 11β-HSD1; 10 μM, read-out: Inhibition rate on murine 11β-HSD1
  inhibition at 10 µM: 90.5%
Murine 11β-HSD1; SPA, text: intact CHOP cells transfected with murine HSD11B1, read-out: IC50, inhibition of murine 11β-HSD1
  IC50: 600 nM
Human 11β-HSD1; in words
  inhibitory activity against human 11β-HSD1 enzyme: low inhibitory activity

## CC1(C)[C@@H](O[C@H]2O[C@H](C(=O)O)[C@@H](O)[C@H](O)[C@H]2O[C@@H]2O[C@H](C(=O)O)[C@@H](O)[C@H](O)[C@H]2O)CC[C@]2(C)[C@H]3C(=O)C=C4[C@@H]5C[C@@](C)(C(=O)O)CC[C@]5(C)CC[C@@]4(C)[C@]3(C)CC[C@@H]12 [Glycyrrhizic acid, reference compound]
Murine 11β-HSD1; 1 nM, read-out: Inhibition rate on murine 11β-HSD1
  inhibition at 0.001 µM: 21.2%
Murine 11β-HSD1; 10 nM, read-out: Inhibition rate on murine 11β-HSD1
  inhibition at 0.01 µM: 51.9%
Murine 11β-HSD1; 100 nM, read-out: Inhibition rate on murine 11β-HSD1
  inhibition at 0.1 µM: 86.8%

## CC1=CC23C(=O)OC(C)(C)C1CC2(O)CC1=C2C(=O)OC(c4ccoc4)C2(C)CCC13 (centres unmarked) [Compound 3, Harperforin G]
Human 11β-HSD2
  SI (selectivity against human 11β-HSD2): > 174
Human 11β-HSD1; SPA, text: intact cell transfected with human HSD11B1, whole cell assay, read-out: IC50, inhibition of human 11β-HSD1
  IC50: 580 nM
